Laboratory results as given in ChEMBL document CHEMBL4507281, “Data for DCP probe BI-4394” (2021).

Experiments:
[1] = test system: Receptor-type tyrosine-protein kinase FLT3 (Homo sapiens), P36888 [D835H]; details: Compound concentration 100.0 nM
[2] = target: Proto-oncogene tyrosine-protein kinase receptor Ret (Homo sapiens) (UniProt P07949); details: Compound concentration 100.0 nM
[3] = target: Serine/threonine-protein kinase 10 (Homo sapiens) (UniProt O94804); details: Compound concentration 100.0 nM
[4] = target: Serine/threonine-protein kinase pim-3 (Homo sapiens) (UniProt Q86V86); details: Compound concentration 100.0 nM
[5] = target: Dual specificity tyrosine-phosphorylation-regulated kinase 2 (Homo sapiens) (UniProt Q92630); details: Compound concentration 100.0 nM
[6] = test system: Receptor-type tyrosine-protein kinase FLT3 (Homo sapiens), P36888 [D835Y]; details: Compound concentration 100.0 nM
[7] = target: Bone morphogenetic protein receptor type-1A (Homo sapiens) (UniProt P36894); details: Compound concentration 100.0 nM
[8] = target: Serine/threonine-protein kinase PAK 5 (Homo sapiens) (UniProt Q9P286); details: Compound concentration 100.0 nM
[9] = target: Serine/threonine-protein kinase TAO2 (Homo sapiens) (UniProt Q9UL54); details: Compound concentration 100.0 nM
[10] = target: Hepatocyte growth factor receptor (Homo sapiens) (UniProt P08581); details: Compound concentration 100.0 nM
[11] = target: Ephrin type-B receptor 4 (Homo sapiens) (UniProt P54760); details: Compound concentration 100.0 nM
[12] = target: Vascular endothelial growth factor receptor 2 (Homo sapiens) (UniProt P35968); details: Compound concentration 100.0 nM
[13] = target: Calcium/calmodulin-dependent protein kinase type II subunit beta (Homo sapiens) (UniProt Q13554); details: Compound concentration 100.0 nM
[14] = target: Beta-2 adrenergic receptor (Homo sapiens) (UniProt P07550); details: Compound concentration 10.0 uM
[15] = target: Myosin light chain kinase (Homo sapiens) (UniProt Q32MK0); details: Compound concentration 100.0 nM
[16] = target: Cyclin-dependent kinase 8 (Homo sapiens) (UniProt P49336); details: Compound concentration 100.0 nM
[17] = target: Serine/threonine-protein kinase RIO2 (Homo sapiens) (UniProt Q9BVS4); details: Compound concentration 100.0 nM
[18] = test system: Mast/stem cell growth factor receptor Kit (Homo sapiens), P10721 [V559D,T670I]; details: Compound concentration 100.0 nM
[19] = target: Mitogen-activated protein kinase kinase kinase kinase 2 (Homo sapiens) (UniProt Q12851); details: Compound concentration 100.0 nM
[20] = target: Serine/threonine-protein kinase 32B (Homo sapiens) (UniProt Q9NY57); details: Compound concentration 100.0 nM
[21] = target: Dual specificity mitogen-activated protein kinase kinase 4 (Homo sapiens) (UniProt P45985); details: Compound concentration 100.0 nM
[22] = target: Phosphatidylinositol 4,5-bisphosphate 3-kinase catalytic subunit beta isoform (Homo sapiens) (UniProt P42338); details: Compound concentration 100.0 nM
[23] = test system: Tyrosine-protein kinase ABL1 (Homo sapiens), P00519 [M351T]; details: Compound concentration 100.0 nM
[24] = target: Dual serine/threonine and tyrosine protein kinase (Homo sapiens) (UniProt Q6XUX3); details: Compound concentration 100.0 nM
[25] = target: Protein kinase C theta type (Homo sapiens) (UniProt Q04759); details: Compound concentration 100.0 nM
[26] = test system: Epidermal growth factor receptor (Homo sapiens), P00533 [UNDEFINED MUTATION]; details: Compound concentration 100.0 nM
[27] = target: Serine/threonine-protein kinase PLK3 (Homo sapiens) (UniProt Q9H4B4); details: Compound concentration 100.0 nM
[28] = target: Ephrin type-A receptor 8 (Homo sapiens) (UniProt P29322); details: Compound concentration 100.0 nM
[29] = test system: Epidermal growth factor receptor (Homo sapiens), P00533 [T790M]; details: Compound concentration 100.0 nM
[30] = target: Serine/threonine-protein kinase 32A (Homo sapiens) (UniProt Q8WU08); details: Compound concentration 100.0 nM
[31] = target: Dual specificity mitogen-activated protein kinase kinase 5 (Homo sapiens) (UniProt Q13163); details: Compound concentration 100.0 nM
[32] = target: Cyclin-dependent kinase 7 (Homo sapiens) (UniProt P50613); details: Compound concentration 100.0 nM
[33] = target: Receptor-type tyrosine-protein kinase FLT3 (Homo sapiens) (UniProt P36888); details: Compound concentration 100.0 nM
[34] = target: Serine/threonine-protein kinase 4 (Homo sapiens) (UniProt Q13043); details: Compound concentration 100.0 nM
[35] = target: Serine/threonine-protein kinase MARK2 (Homo sapiens) (UniProt Q7KZI7); details: Compound concentration 100.0 nM
[36] = target: Phosphatidylinositol 5-phosphate 4-kinase type-2 beta (Homo sapiens) (UniProt P78356); details: Compound concentration 100.0 nM
[37] = target: Cyclin-dependent kinase 4 (Homo sapiens) (UniProt P11802); details: Compound concentration 100.0 nM
[38] = target: Serine/threonine-protein kinase pim-2 (Homo sapiens) (UniProt Q9P1W9); details: Compound concentration 100.0 nM
[39] = target: cAMP-dependent protein kinase catalytic subunit PRKX (Homo sapiens) (UniProt P51817); details: Compound concentration 100.0 nM
[40] = target: MAP/microtubule affinity-regulating kinase 4 (Homo sapiens) (UniProt Q96L34); details: Compound concentration 100.0 nM
[41] = target: Muscarinic acetylcholine receptor M3 (Homo sapiens) (UniProt P20309); details: Compound concentration 10.0 uM
[42] = target: Serine/threonine-protein kinase PAK 2 (Homo sapiens) (UniProt Q13177); details: Compound concentration 100.0 nM
[43] = target: Alpha-2B adrenergic receptor (Homo sapiens) (UniProt P18089); details: Compound concentration 10.0 uM
[44] = target: Bone morphogenetic protein receptor type-1B (Homo sapiens) (UniProt O00238); details: Compound concentration 100.0 nM
[45] = target: Serine/threonine-protein kinase MRCK alpha (Homo sapiens) (UniProt Q5VT25); details: Compound concentration 100.0 nM

Sequence of Serine/threonine-protein kinase PLK3 (Homo sapiens) (Q9H4B4 whole entry, looked up): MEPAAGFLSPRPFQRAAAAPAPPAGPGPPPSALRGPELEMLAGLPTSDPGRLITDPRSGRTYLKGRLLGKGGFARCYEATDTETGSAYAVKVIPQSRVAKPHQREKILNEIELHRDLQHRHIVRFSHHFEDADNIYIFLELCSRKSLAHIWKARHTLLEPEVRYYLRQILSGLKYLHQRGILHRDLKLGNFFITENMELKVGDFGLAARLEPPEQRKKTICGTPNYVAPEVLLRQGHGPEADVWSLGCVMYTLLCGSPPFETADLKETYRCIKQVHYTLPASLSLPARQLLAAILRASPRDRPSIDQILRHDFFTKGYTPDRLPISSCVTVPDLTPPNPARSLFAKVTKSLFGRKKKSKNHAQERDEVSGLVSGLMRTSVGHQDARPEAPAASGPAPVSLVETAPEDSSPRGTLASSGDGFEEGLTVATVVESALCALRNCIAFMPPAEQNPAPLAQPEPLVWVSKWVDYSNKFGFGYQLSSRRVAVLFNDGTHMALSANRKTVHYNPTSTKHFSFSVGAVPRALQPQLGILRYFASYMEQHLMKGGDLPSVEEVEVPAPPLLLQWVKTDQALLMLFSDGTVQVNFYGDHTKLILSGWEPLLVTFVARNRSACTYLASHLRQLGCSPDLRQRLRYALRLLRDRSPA
Sequence of Muscarinic acetylcholine receptor M3 (Homo sapiens) (P20309 whole entry, looked up): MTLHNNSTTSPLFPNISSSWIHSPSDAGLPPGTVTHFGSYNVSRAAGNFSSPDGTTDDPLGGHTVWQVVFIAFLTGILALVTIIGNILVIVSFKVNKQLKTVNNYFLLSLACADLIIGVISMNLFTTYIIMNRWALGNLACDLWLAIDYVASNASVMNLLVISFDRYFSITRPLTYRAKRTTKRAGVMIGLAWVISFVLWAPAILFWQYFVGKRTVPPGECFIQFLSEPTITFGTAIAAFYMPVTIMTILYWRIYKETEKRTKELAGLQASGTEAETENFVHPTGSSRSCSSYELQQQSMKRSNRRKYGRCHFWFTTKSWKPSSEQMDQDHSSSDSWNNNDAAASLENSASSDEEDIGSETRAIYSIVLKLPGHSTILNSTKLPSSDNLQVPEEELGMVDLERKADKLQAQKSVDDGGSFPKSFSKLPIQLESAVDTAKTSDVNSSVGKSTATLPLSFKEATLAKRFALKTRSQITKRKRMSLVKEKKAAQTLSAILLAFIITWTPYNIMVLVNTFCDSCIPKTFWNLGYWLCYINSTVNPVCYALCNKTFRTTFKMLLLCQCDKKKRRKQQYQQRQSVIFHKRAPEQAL
Sequence of Serine/threonine-protein kinase 32A (Homo sapiens) (Q8WU08 whole entry): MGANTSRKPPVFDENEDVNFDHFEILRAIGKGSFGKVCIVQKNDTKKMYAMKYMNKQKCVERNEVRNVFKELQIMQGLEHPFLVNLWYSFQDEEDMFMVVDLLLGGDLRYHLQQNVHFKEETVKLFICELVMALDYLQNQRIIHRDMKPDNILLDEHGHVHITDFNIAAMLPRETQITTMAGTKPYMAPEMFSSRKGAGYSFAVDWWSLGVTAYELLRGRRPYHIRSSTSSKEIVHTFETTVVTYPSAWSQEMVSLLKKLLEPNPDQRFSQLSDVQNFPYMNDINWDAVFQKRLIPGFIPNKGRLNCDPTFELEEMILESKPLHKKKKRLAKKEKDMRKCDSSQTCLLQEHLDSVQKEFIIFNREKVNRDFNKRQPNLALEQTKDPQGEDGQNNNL
Sequence of Bone morphogenetic protein receptor type-1B (Homo sapiens) (O00238 whole entry): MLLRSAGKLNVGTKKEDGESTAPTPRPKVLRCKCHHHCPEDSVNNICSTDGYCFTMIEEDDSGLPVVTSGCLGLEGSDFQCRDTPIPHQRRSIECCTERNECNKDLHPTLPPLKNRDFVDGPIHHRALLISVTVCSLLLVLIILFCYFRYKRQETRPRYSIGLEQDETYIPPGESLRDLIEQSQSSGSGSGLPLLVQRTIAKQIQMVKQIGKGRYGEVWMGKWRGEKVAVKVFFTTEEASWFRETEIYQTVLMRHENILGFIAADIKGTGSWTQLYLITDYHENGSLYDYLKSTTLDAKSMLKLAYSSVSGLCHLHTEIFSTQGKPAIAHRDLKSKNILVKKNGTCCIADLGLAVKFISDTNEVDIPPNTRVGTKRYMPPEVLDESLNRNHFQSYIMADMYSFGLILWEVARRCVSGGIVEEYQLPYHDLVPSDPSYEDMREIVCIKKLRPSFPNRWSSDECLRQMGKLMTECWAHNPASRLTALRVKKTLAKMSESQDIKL
Sequence of Dual specificity tyrosine-phosphorylation-regulated kinase 2 (Homo sapiens) (Q92630 whole entry): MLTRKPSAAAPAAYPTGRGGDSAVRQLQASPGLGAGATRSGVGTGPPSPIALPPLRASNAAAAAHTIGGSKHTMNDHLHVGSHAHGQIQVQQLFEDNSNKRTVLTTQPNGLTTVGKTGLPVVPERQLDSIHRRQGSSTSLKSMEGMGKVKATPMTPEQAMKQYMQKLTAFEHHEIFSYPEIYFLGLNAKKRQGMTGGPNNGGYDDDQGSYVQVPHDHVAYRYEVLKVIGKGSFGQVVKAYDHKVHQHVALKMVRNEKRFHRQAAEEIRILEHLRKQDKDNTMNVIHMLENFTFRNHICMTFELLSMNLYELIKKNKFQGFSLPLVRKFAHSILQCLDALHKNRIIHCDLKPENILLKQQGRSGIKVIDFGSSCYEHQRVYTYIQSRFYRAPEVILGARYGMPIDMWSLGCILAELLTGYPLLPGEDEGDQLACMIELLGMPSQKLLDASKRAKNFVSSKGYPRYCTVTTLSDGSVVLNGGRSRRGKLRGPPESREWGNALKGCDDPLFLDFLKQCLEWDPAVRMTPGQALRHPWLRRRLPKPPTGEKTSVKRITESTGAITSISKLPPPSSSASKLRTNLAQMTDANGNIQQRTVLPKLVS
Sequence of Cyclin-dependent kinase 8 (Homo sapiens) (P49336 whole entry): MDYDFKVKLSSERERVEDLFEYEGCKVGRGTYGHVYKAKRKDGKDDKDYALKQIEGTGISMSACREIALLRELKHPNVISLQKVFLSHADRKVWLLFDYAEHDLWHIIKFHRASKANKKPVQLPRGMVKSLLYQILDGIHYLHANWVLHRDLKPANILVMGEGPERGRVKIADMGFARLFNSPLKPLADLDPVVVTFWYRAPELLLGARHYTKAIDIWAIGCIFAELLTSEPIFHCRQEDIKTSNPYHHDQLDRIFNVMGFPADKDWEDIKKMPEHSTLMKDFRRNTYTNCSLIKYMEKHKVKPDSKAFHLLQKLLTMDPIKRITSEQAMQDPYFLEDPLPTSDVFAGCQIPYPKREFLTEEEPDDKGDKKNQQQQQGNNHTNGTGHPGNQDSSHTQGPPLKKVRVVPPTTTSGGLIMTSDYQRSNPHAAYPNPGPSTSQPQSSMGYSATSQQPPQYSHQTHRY
Sequence of Serine/threonine-protein kinase PAK 5 (Homo sapiens) (Q9P286 whole entry, looked up): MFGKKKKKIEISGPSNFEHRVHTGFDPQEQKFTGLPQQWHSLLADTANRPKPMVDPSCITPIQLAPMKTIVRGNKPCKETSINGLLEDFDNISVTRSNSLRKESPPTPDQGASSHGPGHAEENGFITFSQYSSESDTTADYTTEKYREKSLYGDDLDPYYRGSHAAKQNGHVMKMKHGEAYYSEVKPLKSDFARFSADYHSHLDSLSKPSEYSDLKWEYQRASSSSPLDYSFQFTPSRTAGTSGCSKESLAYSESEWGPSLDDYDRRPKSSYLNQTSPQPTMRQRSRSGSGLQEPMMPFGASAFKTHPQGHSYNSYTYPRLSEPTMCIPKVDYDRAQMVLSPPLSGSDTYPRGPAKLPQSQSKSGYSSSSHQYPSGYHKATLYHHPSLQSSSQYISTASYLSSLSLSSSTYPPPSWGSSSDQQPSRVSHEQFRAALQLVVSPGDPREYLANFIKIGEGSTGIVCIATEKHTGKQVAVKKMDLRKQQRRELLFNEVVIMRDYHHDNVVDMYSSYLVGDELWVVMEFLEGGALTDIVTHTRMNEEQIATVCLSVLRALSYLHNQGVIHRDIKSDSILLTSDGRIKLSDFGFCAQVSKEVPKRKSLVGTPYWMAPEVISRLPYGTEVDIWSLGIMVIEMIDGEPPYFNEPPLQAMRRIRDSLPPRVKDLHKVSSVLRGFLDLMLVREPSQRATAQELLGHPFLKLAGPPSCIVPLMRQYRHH
Sequence of Ephrin type-A receptor 8 (Homo sapiens) (P29322 whole entry): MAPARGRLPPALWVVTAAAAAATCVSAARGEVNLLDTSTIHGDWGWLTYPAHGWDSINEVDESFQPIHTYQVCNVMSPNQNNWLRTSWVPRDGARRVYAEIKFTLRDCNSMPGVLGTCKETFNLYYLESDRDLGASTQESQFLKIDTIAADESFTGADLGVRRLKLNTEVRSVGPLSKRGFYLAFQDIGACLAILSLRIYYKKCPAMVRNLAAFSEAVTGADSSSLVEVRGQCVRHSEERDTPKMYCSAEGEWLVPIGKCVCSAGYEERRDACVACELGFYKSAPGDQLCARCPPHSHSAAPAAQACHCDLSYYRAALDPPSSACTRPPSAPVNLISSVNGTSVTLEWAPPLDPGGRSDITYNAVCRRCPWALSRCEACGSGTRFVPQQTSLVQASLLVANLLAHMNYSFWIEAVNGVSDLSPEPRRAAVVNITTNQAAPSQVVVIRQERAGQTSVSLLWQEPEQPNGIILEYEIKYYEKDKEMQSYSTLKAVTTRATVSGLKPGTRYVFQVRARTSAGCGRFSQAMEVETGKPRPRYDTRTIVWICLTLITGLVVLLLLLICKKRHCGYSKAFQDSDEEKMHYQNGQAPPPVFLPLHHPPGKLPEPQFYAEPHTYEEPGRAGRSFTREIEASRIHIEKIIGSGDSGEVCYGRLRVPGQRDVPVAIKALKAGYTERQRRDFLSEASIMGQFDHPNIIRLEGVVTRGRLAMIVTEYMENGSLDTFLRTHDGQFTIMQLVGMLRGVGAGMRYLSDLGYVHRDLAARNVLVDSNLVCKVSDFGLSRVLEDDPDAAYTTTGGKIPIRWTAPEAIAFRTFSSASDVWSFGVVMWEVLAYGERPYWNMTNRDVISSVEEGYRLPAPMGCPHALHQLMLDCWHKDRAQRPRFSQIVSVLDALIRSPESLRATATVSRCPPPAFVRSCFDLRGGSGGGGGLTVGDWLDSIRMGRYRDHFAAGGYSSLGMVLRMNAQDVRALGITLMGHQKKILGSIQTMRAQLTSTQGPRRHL

Work on `CCOC(=O)c1cc2cc(-c3cc(C(=O)NCc4ccc(C(=O)O)cc4)nn3C)ccc2[nH]1` [BI 4394] yielded a residual activity [1] of 100%, a residual activity [2] of 87% and a residual activity [3] of 100%. The residual activity [4] was 99%, the residual activity [5] was 76% and the residual activity [6] was 92%. It also gave a residual activity [7] of 87%, a residual activity [8] of 95% and a residual activity [9] of 90%. It also gave a residual activity [10] of 96%, a residual activity [11] of 99% and a residual activity [12] of 81%. The residual activity [13] was 96%, the inhibition [14] was -7.76% and the residual activity [15] was 89%. It also gave a residual activity [16] of 62%, a residual activity [17] of 100% and a residual activity [18] of 96%. For the same compound, the residual activity [19] was 84%, the residual activity [20] was 92% and the residual activity [21] was 93%. The residual activity [22] was 88%, the residual activity [23] was 90% and the residual activity [24] was 69%. It also gave a residual activity [25] of 97%, a residual activity [26] of 100% and a residual activity [27] of 70%. For the same compound, the residual activity [28] was 100%, the residual activity [29] was 89% and the residual activity [30] was 75%. It also gave a residual activity [31] of 82%, a residual activity [32] of 76% and a residual activity [33] of 98%. For the same compound, the residual activity [34] was 100%, the residual activity [35] was 100% and the residual activity [36] was 100%. It also gave a residual activity [37] of 74%, a residual activity [38] of 96% and a residual activity [39] of 100%. The residual activity [40] was 79%, the inhibition [41] was 4.89% and the residual activity [42] was 100%. It also gave an inhibition [43] of 16.4%, a residual activity [44] of 96% and a residual activity [45] of 100%.
For `Cn1nc(C(=O)NCc2ccc(C(=O)O)cc2)cc1-c1ccc2[nH]ccc2c1` [BI 4395], the residual activity [1] was 46%, the residual activity [2] was 83% and the residual activity [3] was 80%. For the same compound, the residual activity [4] was 91%, the residual activity [5] was 100% and the residual activity [6] was 81%. For the same compound, the residual activity [7] was 94%, the residual activity [8] was 62% and the residual activity [9] was 82%. For the same compound, the residual activity [10] was 100%, the residual activity [11] was 100% and the residual activity [12] was 85%. For the same compound, the residual activity [13] was 91%, the inhibition [14] was 6.74% and the residual activity [15] was 100%. The residual activity [16] was 100%, the residual activity [17] was 100% and the residual activity [18] was 77%. For the same compound, the residual activity [19] was 85%, the residual activity [20] was 100% and the residual activity [21] was 79%. For the same compound, the residual activity [22] was 82%, the residual activity [23] was 75% and the residual activity [24] was 96%. It also gave a residual activity [25] of 99%, a residual activity [26] of 74% and a residual activity [27] of 94%. It also gave a residual activity [28] of 92%, a residual activity [29] of 100% and a residual activity [30] of 92%. For the same compound, the residual activity [31] was 63%, the residual activity [32] was 100% and the residual activity [33] was 95%. The residual activity [34] was 80%, the residual activity [35] was 100% and the residual activity [36] was 93%. The residual activity [37] was 88%, the residual activity [38] was 81% and the residual activity [39] was 71%. The residual activity [40] was 100%, the inhibition [41] was -0.66% and the residual activity [42] was 23%. For the same compound, the inhibition [43] was 6%, the residual activity [44] was 88% and the residual activity [45] was 79%.
